Measured values published in US5922723A, “Pharmaceutical compositions for prevention and treatment of central nervous system disorders” (priority 1996, dated 1999).
Where a name gives a salt, the structure may show the parent alone.

Key:
[1] = biological target: CNS nicotinic receptors; experiment: Inhibition of L-[3H]nicotine binding to rat brain membrane preparations; design: species or system rat (Sprague-Dawley); conditions: for Ki: 10 nM L-[3H]nicotine, 2 hr at 4° C., rat brain membranes, calculated from IC50 (Cheng et al.); for binding to CNS nicotinic receptors (in words): summary of Table I
Protocol: Rats (Sprague-Dawley) were maintained on a 12 hour light/dark cycle and were allowed free access to water and food supplied by Wayne Lab Blox, Madison, Wis. Animals used in the present studies weighed 200 to 250 g. Brain membrane preparations were obtained from brain tissue of either males or females.
Rats were killed by decapitation following anesthesia with 70% CO2. Brains were removed and placed on an ice-cold platform. […] The resulting homogenate was centrifuged at 18,000× g for 20 min. and the resulting pellet was resuspended in 20 volumes of water. After 60 min. incubation at 4° C., a new pellet was collected by centrifugation at 18,000× g for 20 min. After resuspension in 10 volumes of buffer, a new final pellet was again collected by centrifugation at 18,000× g for 20 min. Prior to each centrifugation step, the suspension was incubated at 37° C. for 5 min. to promote hydrolysis of endogenous acetylcholine. The final pellet was overlayered with buffer and stored at -70° C. On the day of the assay, that pellet was thawed, resuspended in buffer and centrifuged at 18,000× g for 20 min. The pellet obtained was resuspended in buffer to a final concentration of approximately 5 mg protein/ml.
The binding of L-[^3 H]nicotine was measured using a 2 hr. incubation at 4° C. Incubations contained about 500 μg of protein and were conducted in 12 mm×75 mm polypropylene test tubes in a final incubation volume of 250 μl. The incubation buffer was Krebs-Ringers HEPES containing 200 mM TRIS buffer, pH 7.5. The binding reaction was terminated by filtration of the protein containing bound ligand onto glass fiber filters (Micro Filtration Systems) that had been soaked in buffer containing 0.5 percent polyethyleneimine. Filtration vacuum was -50 to -100 torr. Each filter was washed five times with 3 ml of ice-cold buffer. The filtration apparatus was cooled to 2° C. before use and was kept cold through the filtration process. Nonspecific binding was determined by inclusion of 10 uM nonradioactive nicotine in the incubations.
The inhibition of L-[^3 H]nicotine binding by test compounds was determined by including one of eight different concentrations of the test compound in the incubation.

[2] = tested on: synaptosomes from the striatal area of rat brain (dopamine release); experiment: Dopamine release from synaptosomes of the striatal area of rat brain; format: biochemical, rat (Sprague-Dawley); conditions: for EC50: [3H]-dopamine; for dopamine release (in words): summary of Table I
Protocol: Striata from 4 rats were homogenized in 2 ml of 0.32 M sucrose buffered with 5 mM HEPES (pH 7.5), using a glass-Teflon tissue grinder. The homogenate was diluted to 5 ml with additional homogenization solution and centrifuged at 1,000× g for 10 min. This procedure was repeated on the new pellet and the resulting supernatant was centrifuged at 12,000× g for 20 min. A 3 layer discontinuous Percoll gradient consisting of 16 percent, 10 percent and 7.5 percent Percoll in HEPES-buffered sucrose was made with the final pellet dispersed in the top layer. […] The new pellet was collected and re-suspended in perfusion buffer. The synaptosome suspension was incubated for 10 min. at 37° C. [^3 H]-Dopamine (Amersham, 40-60 Ci/mmol) was added to the suspension to give a final concentration of 0.1 uM, and the suspension was incubated for another 5 min. […] A continuous perfusion system was used to monitor release following exposure to each ligand. Synaptosomes were loaded onto glass fiber filters (Gelman type A/E). Perfusion buffer was dripped onto the filters (0.2-0.3 ml/min.) and pulled through the filters with a peristaltic pump. Synaptosomes were washed with perfusion buffer for a minimum of 20 min. before addition of the ligand. After the addition of 0.2 ml of a solution containing various concentrations of ligand, the perfusate was collected into scintillation vials at 1 min. intervals and the dopamine released was quantified by scintillation counting. Peaks of radioactivity released above background were summed and the average basal release during that time was subtracted from the total.

[3] = biological target: T1, muscle-like nicotinic receptors (human clonal line TE671/RD) (Homo sapiens, UniProt P02708+P07510+Q07001); format: cell-based; conditions: for effects at muscle sites (in words): summary of Table I; for Muscle Effect: te671/rd cells
T1 construct: these cells express muscle-like nicotinic receptors; endogenous in cells; host or cells: TE671/RD (human embryonal rhabdomyosarcoma clonal line), intact cells
T1 sequence (P02708 21-457): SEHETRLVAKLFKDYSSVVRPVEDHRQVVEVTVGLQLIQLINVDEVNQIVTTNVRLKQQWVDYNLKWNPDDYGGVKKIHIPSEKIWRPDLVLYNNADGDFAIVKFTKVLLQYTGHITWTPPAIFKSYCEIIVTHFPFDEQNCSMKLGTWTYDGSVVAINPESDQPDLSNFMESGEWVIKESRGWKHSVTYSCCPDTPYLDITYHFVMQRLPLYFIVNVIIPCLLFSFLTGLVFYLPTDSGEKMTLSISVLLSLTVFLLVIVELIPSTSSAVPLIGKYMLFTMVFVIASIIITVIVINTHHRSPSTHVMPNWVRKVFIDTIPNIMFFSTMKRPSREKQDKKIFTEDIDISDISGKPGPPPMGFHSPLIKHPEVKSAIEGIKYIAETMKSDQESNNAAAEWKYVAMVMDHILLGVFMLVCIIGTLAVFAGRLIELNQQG
T1 sequence (Q07001 22-517): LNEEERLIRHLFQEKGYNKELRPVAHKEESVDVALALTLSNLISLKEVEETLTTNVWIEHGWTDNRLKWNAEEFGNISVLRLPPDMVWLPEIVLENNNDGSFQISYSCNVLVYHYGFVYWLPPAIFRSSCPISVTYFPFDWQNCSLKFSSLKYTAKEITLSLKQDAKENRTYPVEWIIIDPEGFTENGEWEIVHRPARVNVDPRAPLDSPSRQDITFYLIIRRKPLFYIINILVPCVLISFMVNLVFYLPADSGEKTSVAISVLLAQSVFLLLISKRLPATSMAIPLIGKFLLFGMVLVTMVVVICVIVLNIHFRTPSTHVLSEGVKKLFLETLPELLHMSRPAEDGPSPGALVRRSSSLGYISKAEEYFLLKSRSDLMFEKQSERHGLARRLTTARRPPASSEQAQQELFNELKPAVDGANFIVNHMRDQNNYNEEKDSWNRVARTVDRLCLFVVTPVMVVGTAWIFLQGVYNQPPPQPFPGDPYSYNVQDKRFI
T1 sequence (P07510 23-517): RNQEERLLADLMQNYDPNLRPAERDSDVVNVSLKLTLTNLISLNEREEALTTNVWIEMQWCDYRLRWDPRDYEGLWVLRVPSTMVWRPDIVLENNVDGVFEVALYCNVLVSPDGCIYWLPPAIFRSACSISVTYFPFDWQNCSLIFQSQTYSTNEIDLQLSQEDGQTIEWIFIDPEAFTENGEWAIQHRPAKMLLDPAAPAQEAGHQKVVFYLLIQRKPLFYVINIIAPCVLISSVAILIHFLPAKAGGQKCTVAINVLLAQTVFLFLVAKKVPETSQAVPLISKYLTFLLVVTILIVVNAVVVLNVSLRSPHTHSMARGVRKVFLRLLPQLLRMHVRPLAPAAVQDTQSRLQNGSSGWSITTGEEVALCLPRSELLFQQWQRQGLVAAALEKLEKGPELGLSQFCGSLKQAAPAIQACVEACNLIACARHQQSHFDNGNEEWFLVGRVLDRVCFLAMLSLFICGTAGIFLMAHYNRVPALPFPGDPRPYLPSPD
Protocol: Discussion concerning the heterogeneity of nicotinic receptors subtypes is set forth in Lukas et al., Internatl. […] Acetylcholine nicotinic receptors expressed in rat ganglia share a very high degree of homology with their human counterparts. See, Fornasari et al., Neurosci. […] Intact cells on dishes were used for functional studies.
Specific ion efflux was determined as the difference in isotope efflux between total and non-specific efflux samples.

[4] = biological target: T2, ganglionic-type neuronal nicotinic receptors (rat pheochromocytoma clonal line PC12) (Rattus norvegicus, UniProt P04757+P12392); format: cell-based; conditions: for Ganglion Effect: pc12 cells; for effects at ganglionic sites (in words): summary of Table I
T2 construct: tumor of the rat adrenal medulla expressing ganglionic-typeneuronal nicotinic receptors; endogenous in cells; host or cells: PC12 (rat pheochromocytoma clonal line), intact cells
T2 sequence (P04757 26-499): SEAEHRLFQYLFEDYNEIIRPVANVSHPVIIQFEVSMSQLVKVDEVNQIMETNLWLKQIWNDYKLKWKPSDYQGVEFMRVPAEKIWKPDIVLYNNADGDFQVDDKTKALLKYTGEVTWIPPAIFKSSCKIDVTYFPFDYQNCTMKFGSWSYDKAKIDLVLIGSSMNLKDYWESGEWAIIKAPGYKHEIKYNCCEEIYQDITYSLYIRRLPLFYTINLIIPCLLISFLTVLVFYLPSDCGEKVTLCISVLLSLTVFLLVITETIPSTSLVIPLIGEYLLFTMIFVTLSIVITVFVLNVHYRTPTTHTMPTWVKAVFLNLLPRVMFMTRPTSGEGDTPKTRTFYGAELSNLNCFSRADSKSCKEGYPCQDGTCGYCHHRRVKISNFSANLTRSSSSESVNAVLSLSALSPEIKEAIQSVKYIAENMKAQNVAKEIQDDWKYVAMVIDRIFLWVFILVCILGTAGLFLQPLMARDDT
T2 sequence (P12392 21-495): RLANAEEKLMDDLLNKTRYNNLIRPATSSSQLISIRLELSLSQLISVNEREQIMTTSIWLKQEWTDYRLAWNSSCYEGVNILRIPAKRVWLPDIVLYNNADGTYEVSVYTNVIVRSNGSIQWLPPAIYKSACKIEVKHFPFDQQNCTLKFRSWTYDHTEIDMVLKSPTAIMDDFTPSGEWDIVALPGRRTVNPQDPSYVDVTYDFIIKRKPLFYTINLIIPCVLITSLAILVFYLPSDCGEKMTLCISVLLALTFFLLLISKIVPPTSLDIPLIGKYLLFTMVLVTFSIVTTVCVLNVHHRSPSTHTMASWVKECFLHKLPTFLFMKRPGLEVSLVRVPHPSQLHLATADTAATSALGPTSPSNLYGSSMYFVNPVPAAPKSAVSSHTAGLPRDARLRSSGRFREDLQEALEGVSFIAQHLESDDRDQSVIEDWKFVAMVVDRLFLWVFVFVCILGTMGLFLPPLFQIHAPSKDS

[5] = rat striatal synaptosomes, % of release by equal concentration of (S)-(-)-nicotine

Row | Compound | Ki [1] [nM] | binding to CNS nicotinic receptors (in words) [1] | EC50 ([2]; rat striatal synaptosomes) [nM] | Dopamine Release Emax [2, 5] [% nicotine] | effects at muscle sites (in words) [3] | Muscle Effect [3] | Ganglion Effect [4] | effects at ganglionic sites (in words) [4] | Dopamine Release Emax ([2]; Emax at 100 uM, % of release by (S)-(-)-nicotine) [% nicotine] | dopamine release (in words) [2]
1 | CN1C2CCC(CC2)C1c1cccnc1 (racemic) [Sample No. 6, (+/-)-2-methyl-3-(3-pyridyl)-2-azabiyclo[2.2.2]octane fumarate] | 58 | good high affinity binding to CNS nicotinic receptors | 2000 | 10 | desirably low effects at muscle sites | 30 | 21 | desirably low effects at muscle sites and ganglionic sites | – | –
2 | O=C(O)/C=C/C(=O)O.c1cncc(C2NC3CCC2CC3)c1 (racemic) [compound 5, (+/-)-3-(3-pyridyl)-2-azabicyclo[2.2.2]octane fumarate] | 35 | good high affinity binding to CNS nicotinic receptors | 2550 | 4 | desirably low effects at muscle sites | 9 | 3 | desirably low effects at muscle sites and ganglionic sites | – | –
3 | C1=C[C@H]2CC[C@@H]1[C@@H](c1cccnc1)N2 (relative stereo) [Sample No. 1, (+/-)-endo 3-(3-pyridyl)-2-azabicyclo[2.2.2]oct-5-ene fumarate] | 476 | – | 550 | 14 | – | 69 | 12 | – | – | –
4 | C1=C[C@H]2CC[C@@H]1[C@H](c1cccnc1)N2 (relative stereo) [Sample No. 2, (+/-)-exo-3-(3-pyridyl)-2-azabicyclo[2.2.2]oct-5-ene fumarate] | 2 | good high affinity binding to CNS nicotinic receptors | 300 | 41 | – | 103 | 65 | – | – | –
5 | CN1[C@H](c2cccnc2)[C@@H]2C=C[C@H]1CC2 (relative stereo) [Sample No. 3, (+/-)-endo-2-methyl-3-(3-pyridyl)-2-azabicyclo[2.2.2]oct-5-ene fumarate] | 6360 | – | 13000 | 9 | – | 0 | 0 | – | – | –
6 | CN1[C@H]2C=C[C@H](CC2)[C@@H]1c1cccnc1 (relative stereo) [Sample No. 4, (+/-)-Exo-2-methyl-3-(3-pyridyl)-2-azabicyclo[2.2.2]oct-5-ene fumarate] | 33 | good high affinity binding to CNS nicotinic receptors | 35000 | 17 | desirably low effects at muscle sites | 8 | 8 | desirably low effects at muscle sites and ganglionic sites | – | –
7 | CCN1[C@H](c2cccnc2)[C@@H]2C=C[C@H]1C2 (relative stereo) [Sample No. 7, (+/-)-endo-2-ethyl-3-(3-pyridyl)-2-azabicyclo[2.2.1]hept-5-ene] | 7820 | – | 12900 | 22 | – | 18 | 2 | – | – | –
8 | COc1ccc(CN2[C@H](c3cccnc3)[C@@H]3C=C[C@H]2C3)cc1 (relative stereo) [Sample No. 8, (+/-)-endo-2-(p-methoxybenzyl)-3-(3-pyridyl)-2-azabicyclo[2.2.1]hept-5-ene] | 80800 | – | > 100000 | – | desirably low effects at muscle sites | – | – | desirably low effects at muscle sites and ganglionic sites | 15 | induce dopamine release
9 | CN1[C@H](c2cccnc2)[C@@H]2C=C[C@H]1C2 (relative stereo) [Sample No. 10, (+/-)-endo-2-methyl-3-(3-pyridyl)-2-azabicyclo[2.2.1]hept-5-ene] | 3 | good high affinity binding to CNS nicotinic receptors | 86 | 44 | desirably low effects at muscle sites | 25 | 18 | desirably low effects at muscle sites and ganglionic sites | – | –
10 | CN1[C@H](c2cncc(Br)c2)[C@@H]2C=C[C@H]1C2 (relative stereo) [Sample No. 12, (+/-)-endo-2-methyl-3-[3-(5-bromopyridyl)]-2-azabicyclo[2.2.1]hept-5-ene] | 2100 | – | 1650 | 12 | – | 2 | 4 | – | – | –
11 | C1=C[C@H]2C[C@@H]1[C@@H](c1cccnc1)N2Cc1ccccc1 (relative stereo) [compound 9, (+/-)-endo-2-benzyl-3-(3-pyridyl)-2-azabicyclo[2.2.1]hept-5-ene] | 141000 | – | 11000 | 30 | desirably low effects at muscle sites | 7 | 11 | desirably low effects at muscle sites and ganglionic sites | – | induce dopamine release
12 | CN1[C@H]2C=C[C@H](C2)[C@@H]1c1cccnc1 (relative stereo) [compound 11, (+/-)-exo-2-methyl-3-(3-pyridyl)-2-azabicyclo[2.2.1]hept-5-ene] | 9 | good high affinity binding to CNS nicotinic receptors | 90 | 58 | – | 7 | 55 | – | – | –
13 | CN1CCC[C@H]1c1cccnc1 [Sample No. C-1, (S)-(-)-nicotine, reference compound] | – | – | – | 100 | – | – | – | – | – | –
